Measured values taken from patent US20260355330A1, “CELL PENETRATING PEPTIDES AND USES THEREOF” (VECTIOPEP OÜ, priority 2022, published 2026).
Positions of bridges follow the written chain, without caps; N, C: chain ends. Non-standard residues stand in square brackets, D forms with d. Residues, ends and D or L forms follow the SMILES beside them. Chains are numbered I, II in the order given. *: point of attachment. Arachidoyl = CCCCCCCCCCCCCCCCCCCC(=O)*; Stearoyl = CCCCCCCCCCCCCCCCCC(=O)*; Palmitoyl = CCCCCCCCCCCCCCCC(=O)*; Orn = NCCC[C@H](N)C(=O)O; Dab = NCC[C@H](N)C(=O)O

Key:
[1] = system: CHO-K1 cells; assay: Delivery of reporter mRNA with CPPs in cell culture (luciferase luminescence 24 h post-transfection); type: cell-based; settings: for Average RLU/mg (reporter levels post-transfection of mRNA): firefly luciferase mRNA, 0.1 μg per well, charge ratio 3:1, serum containing media, 24 h, RLU normalised to total protein in lysate
Method: FIG. 1: Delivery of reporter mRNA with CPPs in cell culture—evaluation of reporter levels post-transfection (relative light units normalised to total protein in the cell lysate (RLU/mg)). Naked mRNA treated cells were used as controls and Lipofectamine3000 (LF3000) was used to compare the transfection efficacy with a liposome-based transfection reagent.
Adherent CHO-K1 cells were grown in Dulbecco's Modified Eagle's Medium (DMEM), which were supplemented with 0.1 mM non-essential amino acids, 1.0 mM sodium pyruvate, 100 U/ml penicillin, and […]. For complete media, 10% (final) fetal bovine serum (FBS) was added. Cells were maintained in a humidified incubator at 37 °C, 5% CO2. Cell viability and confluence was assessed daily and the cell density was reduced regularly. For cell counting, we used the CytoSMART cell counter accompanied by 0.4% trypan blue staining prior measurement. The multi-well plates with cell cultures used for experiments were incubated in a humidified incubator at 37 °C, 5% CO2.
For in vitro experiments 0.1 μg of nucleic acid (plasmid DNA (pDNA) or mRNA) was used per 96-well plate well. For CPP/NA complex formation, the diluted NA was mixed with CPP in water. Complexes were formed based on the theoretical charge ratio (CR) of positive charges from the peptide in excess to the negative charges from nucleic acid backbone, at charge ratio 3:1 with peptide in excess. Commercial reagent Lipofectamine3000 (LF3000) was used according to the manufacturer's recommendations for the transfection of adherent cells.
For reporter luminescence (expressed from firefly luciferase encoding mRNA or plasmid pDNA) assessment in adherent cell culture, 10,000 cells per 96-well plate well were seeded in 100 μl of media one day prior to transfection. Shortly before transfection, cell media was replaced with 100 μl of serum containing (10% foetal bovine serum) DMEM media. CPPs and mRNA or pDNA were mixed at a charge ratio 3:1 in ultrapure water and incubated at room temperature before addition to cells in serum containing media. Cells were transfected with 0.1 μg of mLuc per well.
24 hours post-transfection, the media was aspirated, cells were washed with 1×PBS, and 30 μl of lysis buffer (0.1% Triton X100 in 1×PBS) was added. Cells were incubated with lysis buffer for 20 min. to lyse the cells. From the lysate, 20 μl was transferred to a black frame white well 96-well plate for luminescence measurement after addition of substrate luciferin (PerkinElmer) in buffer. The luminescence signal was detected with GloMax® 96 microplate luminometer equipped with GloMax® 1.9.2 software (Promega). RLU values were converted to RLU/mg by normalization to total protein in cell lysate, reflecting total number of cells. For protein detection, a Pierce™ BCA Protein Assay Kit was used.
The present inventors have previously reported CPPs developed from the NickFect (NF) and PepFect (PF) families for plasmid (pDNA), siRNA and miRNA delivery (see, e.g. WO 2020/144317, WO 2010/039088 and WO 2012/113846). With the emergence of mRNA-based therapeutics, it was decided to investigate peptides for their ability to deliver mRNA. It was assumed that CPPs that are efficient for siRNA and miRNA delivery, e.g. histidine containing CPPs (Porosk et. al. (2019)), may be good candidates for the delivery of mRNA. Therefore, CPPs from each main family (NF55-, PF14- and NF70-derived CPPs) were tested for mRNA delivery/transfection. Naked mRNA treated and untreated cells were used as control groups. LF3000 was used to compare the transfection efficacy of liposome-based transfection reagents with the CPPs (FIG. 1).

[2] = system: spleen of BALB/c mice; assay: In vivo delivery of mRNA with CPPs - reporter levels in the spleen; settings: for Efficacy of mRNA delivery into the spleen in vivo / Delivery of mRNA in vivo compared to NF54 and/or NF55: in words; for Efficacy of mRNA delivery into the spleen in vivo: FIG. 5 / Table 5; for Reporter levels in the spleen (RLU): mRNA, tail vein injection, spleens harvested 16 hours after single injection, whole tissue homogenate; for Delivery of mRNA in vivo compared to NF54 and/or NF55: comparator NF54 and/or NF55
Method: FIG. 5: Delivery of mRNA with CPPs in vivo—reporter levels in the spleen. Spleens were harvested post mortem 16 hours post-injection. The reporter levels (RLU) were evaluated from the whole tissue homogenate.
The transfection complexes (CPP/mRNA) were formed using 10 μg of mRNA mixed with each peptide at indicated charge ratios (CRs) in MQ water in a final volume of 100 μl. CRs were calculated theoretically and account for both the positive charges of the peptide and negative charges of the nucleic acid. The transfection complexes (CPP/mRNA and CPP/pDNA) were formed using 50 μg of mRNA mixed with each peptide at indicated charge ratios (CRs) in MQ water in a final volume of 168 μl. The complexes were incubated for 30 minutes at room temperature and then mixed with equal volume of 10% glucose (resulting in a final solution of 5% glucose in a total volume of 200 μl for 10 μg dose groups and 336 μl for 50 μg dose groups) and immediately injected intravenously via the tail vein.
The reporter gene (luciferase) expression levels were evaluated from the tissue homogenate post mortem 16-24 h after single injection.
CPPs and mRNA complexes were injected through the tail vein of BALB/c mice, spleens were harvested 16 hours after the single injection and reporter signal was measured from the whole tissue homogenate (FIG. 5 and Table 5).

Row | SMILES | Average RLU/mg (reporter levels post-transfection of mRNA) [1] | Efficacy of mRNA delivery into the spleen in vivo [2] | Reporter levels in the spleen (RLU) [2] | Efficiency of mRNA transfection/delivery ([1]; in words, FIG. 1 / Table 2, cell culture) | Delivery of mRNA compared to NF54 ([1]; in words, comparator NF54) | Delivery of mRNA compared to NF55 ([1]; in words, comparator NF55) | Delivery of mRNA in vivo compared to NF54 and/or NF55 [2] | mRNA in vivo spleen delivery efficiency relative to NF70 ([2]; vs NF70, 16 h post-injection) | mRNA in vivo spleen delivery efficiency relative to PF1452 ([2]; vs PF1452, 16 h post-injection)
1 | CCCCCCCCCCCCCCCC(=O)N[C@@H](C)C(=O)NCC(=O)N[C@@H](Cc1ccc(O)cc1)C(=O)N[C@@H](CC(C)C)C(=O)N[C@@H](CC(C)C)C(=O)NCC(=O)NCCC[C@H](N)C(=O)N[C@H](C(=O)N[C@@H](CC(N)=O)C(=O)N[C@@H](CC(C)C)C(=O)N[C@@H](CCCCN)C(=O)N[C@@H](C)C(=O)N[C@@H](CC(C)C)C(=O)N[C@@H](C)C(=O)N[C@@H](C)C(=O)N[C@@H](CC(C)C)C(=O)N[C@@H](C)C(=O)N[C@@H](CCCCN)C(=O)N[C@@H](C)C(=O)N[C@H](C(=O)N[C@@H](CC(C)C)C(N)=O)[C@@H](C)CC)[C@@H](C)CC [NF419] | 491 000 000 RLU/mg | delivered mRNA into the spleen in vivo with high efficacy | 179 114 RLU |  |  |  |  |  | 
2 | CCCCCCCCCCCCCCCC(=O)N[C@@H](C)C(=O)NCC(=O)N[C@@H](Cc1ccc(O)cc1)C(=O)N[C@@H](CC(C)C)C(=O)N[C@@H](CC(C)C)C(=O)NCC(=O)NCCCC[C@H](N)C(=O)N[C@H](C(=O)N[C@@H](CC(N)=O)C(=O)N[C@@H](CC(C)C)C(=O)N[C@@H](CCCCN)C(=O)N[C@@H](C)C(=O)N[C@@H](CC(C)C)C(=O)N[C@@H](C)C(=O)N[C@@H](C)C(=O)N[C@@H](CC(C)C)C(=O)N[C@@H](C)C(=O)N[C@@H](CCCCN)C(=O)N[C@@H](C)C(=O)N[C@H](C(=O)N[C@@H](CC(C)C)C(N)=O)[C@@H](C)CC)[C@@H](C)CC [NF420] (I: H-KINLKALAALAKAIL-NH2 / II: Palmitoyl-AGYLLG; amide I:1-II:C) | 548 000 000 RLU/mg |  | 81 271 RLU |  |  |  |  |  | 
3 | CCCCCCCCCCCCCCCC(=O)N[C@@H](C)C(=O)NCC(=O)N[C@@H](Cc1ccc(O)cc1)C(=O)N[C@@H](CC(C)C)C(=O)N[C@@H](CC(C)C)C(=O)NCC(=O)NCC[C@H](N)C(=O)N[C@@H](CC(C)C)C(=O)N[C@@H](CCCCN)C(=O)N[C@@H](C)C(=O)N[C@@H](CC(C)C)C(=O)N[C@@H](C)C(=O)N[C@@H](C)C(=O)N[C@@H](CC(C)C)C(=O)N[C@@H](C)C(=O)N[C@@H](CCCCN)C(=O)N[C@@H](C)C(=O)N[C@H](C(=O)N[C@@H](CC(C)C)C(N)=O)[C@@H](C)CC [NF425] (I: H-[Dab]LKALAALAKAIL-NH2 / II: Palmitoyl-AGYLLG; amide I:1-II:C) | 106 000 000 RLU/mg | delivered mRNA into the spleen in vivo with high efficacy | 209 700 RLU |  |  |  |  |  | 
4 | CCCCCCCCCCCCCCCCCCCC(=O)N[C@@H](C)C(=O)NCC(=O)N[C@@H](Cc1ccc(O)cc1)C(=O)N[C@@H](CC(C)C)C(=O)N[C@@H](CC(C)C)C(=O)NCC(=O)NCC[C@H](N)C(=O)N[C@@H](CC(C)C)C(=O)N[C@@H](CCCCN)C(=O)N[C@@H](C)C(=O)N[C@@H](CC(C)C)C(=O)N[C@@H](C)C(=O)N[C@@H](C)C(=O)N[C@@H](CC(C)C)C(=O)N[C@@H](C)C(=O)N[C@@H](CCCCN)C(=O)N[C@@H](C)C(=O)N[C@H](C(=O)N[C@@H](CC(C)C)C(N)=O)[C@@H](C)CC [NF426] (I: H-[Dab]LKALAALAKAIL-NH2 / II: Arachidoyl-AGYLLG; amide I:1-II:C) | 1 960 000 000 RLU/mg | delivered mRNA into the spleen in vivo with high efficacy | 259 807 RLU | the most efficient | equivalent delivery of cargo such as mRNA to NF54 | good improvement in delivery of mRNA over NF55 | good improvement in mRNA delivery in vivo over NF55 |  | 
5 | CCCCCCCCCCCCCCCCCC(=O)N[C@@H](C)C(=O)NCC(=O)N[C@@H](Cc1ccc(O)cc1)C(=O)N[C@@H](CC(C)C)C(=O)N[C@@H](CC(C)C)C(=O)NCC(=O)NCCC[C@H](N)C(=O)N[C@@H](CC(C)C)C(=O)N[C@@H](CCCCN)C(=O)N[C@@H](C)C(=O)N[C@@H](CC(C)C)C(=O)N[C@@H](C)C(=O)N[C@@H](C)C(=O)N[C@@H](CC(C)C)C(=O)N[C@@H](C)C(=O)N[C@@H](CCCCN)C(=O)N[C@@H](C)C(=O)N[C@H](C(=O)N[C@@H](CC(C)C)C(N)=O)[C@@H](C)CC [NF430] (I: H-[Orn]LKALAALAKAIL-NH2 / II: Stearoyl-AGYLLG; amide I:1-II:C) | 766 000 000 RLU/mg | highest reporter levels after mRNA delivery into the spleen in vivo | 405 318 RLU |  |  |  |  |  | 
6 | CCCCCCCCCCCCCCCCCC(=O)N[C@@H](C)C(=O)NCC(=O)N[C@@H](Cc1ccc(O)cc1)C(=O)N[C@@H](CC(C)C)C(=O)N[C@@H](CC(C)C)C(=O)NCC(=O)NCC[C@H](N)C(=O)N[C@@H](CC(C)C)C(=O)N[C@@H](CCCCN)C(=O)N[C@@H](C)C(=O)N[C@@H](CC(C)C)C(=O)N[C@@H](C)C(=O)N[C@@H](C)C(=O)N[C@@H](CC(C)C)C(=O)N[C@@H](C)C(=O)N[C@@H](C)C(=O)N[C@@H](CCCCN)C(=O)N[C@H](C(=O)N[C@@H](CC(C)C)C(N)=O)[C@@H](C)CC [NF436] (I: H-[Dab]LKALAALAAKIL-NH2 / II: Stearoyl-AGYLLG; amide I:1-II:C) | 380 000 000 RLU/mg | highest reporter levels after mRNA delivery into the spleen in vivo | 825 783 RLU |  |  |  | significantly improved delivery of mRNA in vivo over both NF54 and NF55 | 100 times | 43 times
7 | CCCCCCCCCCCCCCCCCC(=O)N[C@@H](C)C(=O)NCC(=O)N[C@@H](Cc1ccc(O)cc1)C(=O)N[C@@H](CC(C)C)C(=O)N[C@@H](CC(C)C)C(=O)NCC(=O)NC[C@H](N)C(=O)N[C@H](C(=O)N[C@@H](CC(N)=O)C(=O)N[C@@H](CC(C)C)C(=O)N[C@@H](CCCCN)C(=O)N[C@@H](C)C(=O)N[C@@H](CC(C)C)C(=O)N[C@@H](C)C(=O)N[C@@H](C)C(=O)N[C@@H](CC(C)C)C(=O)N[C@@H](C)C(=O)N[C@@H](CCCCN)C(=O)N[C@@H](C)C(=O)N[C@H](C(=O)N[C@@H](CC(C)C)C(N)=O)[C@@H](C)CC)[C@@H](C)CC [NF550] | 441 000 000 RLU/mg |  | 33 032 RLU |  |  |  |  |  | 
